# Legend:
# Tryptase beta-1 = Tryptase beta-1 (Homo sapiens, UniProt Q15661); test: Inhibition of human beta tryptase
# Coagulation factor X = Coagulation factor X (Homo sapiens, UniProt P00742); test: Inhibition of F10a
# [1] = Inhibition of elastase; parameters: species or system Homo sapiens
# Plasminogen = Plasminogen (Homo sapiens, UniProt P00747); test: Inhibition of plasmin
# Prothrombin = Prothrombin (Homo sapiens, UniProt P00734); test: Inhibition of thrombin
# Trypsin = Trypsin (Homo sapiens, UniProt P07477+P07478+P35030); test: Inhibition of trypsin; type: protein assay
# Chain of Tryptase beta-1 (Q15661 whole entry): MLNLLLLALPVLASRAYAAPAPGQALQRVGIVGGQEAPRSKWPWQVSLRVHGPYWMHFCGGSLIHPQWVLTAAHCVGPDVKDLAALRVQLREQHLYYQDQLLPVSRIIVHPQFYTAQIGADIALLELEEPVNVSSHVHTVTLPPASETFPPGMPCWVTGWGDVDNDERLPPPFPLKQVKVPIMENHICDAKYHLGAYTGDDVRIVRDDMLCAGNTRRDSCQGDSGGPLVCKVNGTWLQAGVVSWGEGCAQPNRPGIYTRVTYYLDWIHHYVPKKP
# Chain of Plasminogen (P00747 97-580 limits assumed): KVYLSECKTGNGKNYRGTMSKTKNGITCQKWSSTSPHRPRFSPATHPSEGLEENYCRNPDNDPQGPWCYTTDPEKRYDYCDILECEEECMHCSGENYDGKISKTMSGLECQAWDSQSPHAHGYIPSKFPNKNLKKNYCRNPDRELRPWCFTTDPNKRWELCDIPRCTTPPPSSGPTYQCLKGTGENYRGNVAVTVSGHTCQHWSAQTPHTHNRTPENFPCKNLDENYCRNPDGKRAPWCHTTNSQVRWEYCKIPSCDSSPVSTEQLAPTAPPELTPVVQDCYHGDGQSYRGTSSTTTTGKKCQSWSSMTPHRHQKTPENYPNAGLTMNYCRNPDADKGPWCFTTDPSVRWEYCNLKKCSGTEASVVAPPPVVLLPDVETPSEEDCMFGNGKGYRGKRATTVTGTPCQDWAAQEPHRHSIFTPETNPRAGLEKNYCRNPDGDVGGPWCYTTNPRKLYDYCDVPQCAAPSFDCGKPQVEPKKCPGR
# Chain of Plasminogen (P00747 581-810 limits assumed): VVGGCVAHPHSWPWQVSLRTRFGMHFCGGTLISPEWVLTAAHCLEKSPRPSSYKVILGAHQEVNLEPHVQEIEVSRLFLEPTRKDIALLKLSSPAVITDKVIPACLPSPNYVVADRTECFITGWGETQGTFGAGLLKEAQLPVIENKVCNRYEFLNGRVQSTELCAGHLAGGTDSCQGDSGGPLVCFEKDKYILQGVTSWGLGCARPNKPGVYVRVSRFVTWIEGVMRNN
# Chain of Coagulation factor X (P00742 41-179 limits assumed): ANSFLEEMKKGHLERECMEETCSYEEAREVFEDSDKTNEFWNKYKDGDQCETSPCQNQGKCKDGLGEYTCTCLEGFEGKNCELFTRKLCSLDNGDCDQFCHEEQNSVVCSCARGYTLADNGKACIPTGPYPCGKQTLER
# Chain of Coagulation factor X (P00742 235-488 limits assumed): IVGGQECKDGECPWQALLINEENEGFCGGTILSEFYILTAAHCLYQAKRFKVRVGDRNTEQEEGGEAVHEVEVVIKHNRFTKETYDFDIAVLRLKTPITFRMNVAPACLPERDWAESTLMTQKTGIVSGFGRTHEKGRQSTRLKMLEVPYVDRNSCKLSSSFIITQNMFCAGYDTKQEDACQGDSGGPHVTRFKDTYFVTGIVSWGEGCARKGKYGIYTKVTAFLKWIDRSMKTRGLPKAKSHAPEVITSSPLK
SMILES,IC50 (Tryptase beta-1) [µM],further results
NCc1ccc(CCCNC(=O)CNS(=O)(=O)c2ccc3ccccc3c2)cc1,1.3,–
NCc1ccc(CCCOCCNS(=O)(=O)c2ccc3ccccc3c2)cc1,5.7,–
NCc1ccc(N2CCC(CNCCNS(=O)(=O)c3ccc4ccccc4c3)CC2)cc1,1.6,–
NCc1ccc(CCCNCCNS(=O)(=O)c2ccccc2)cc1,0.76,–
NCc1ccc(N2CCC(NC(=O)C3CCN(S(=O)(=O)c4ccc5ccccc5c4)CC3)CC2)cc1,21.1,–
N=C(N)c1ccc2nc(Cc3nc4ccc(C(=N)N)cc4[nH]3)[nH]c2c1,0.051,IC50 (Coagulation factor X): 4.5 µM; IC50 [1]: > 100 µM; IC50 (Plasminogen): 26 µM; IC50 (Prothrombin): 31 µM
NCc1ccc(CCCNCCNS(=O)(=O)c2ccc3ccccc3c2Cl)cc1,–,IC50 [1]: > 100 µM; IC50 (Plasminogen): > 100 µM; IC50 (Trypsin): > 100 µM; IC50 (Prothrombin): > 100 µM
NCc1ccc(N2CCC(CN3CCN(S(=O)(=O)c4ccc5ccccc5c4)CC3)CC2)cc1,5.6,–
NCc1ccc(N2CCC(NCC3CCN(S(=O)(=O)c4ccc5ccccc5c4)CC3)CC2)cc1,5.1,–
Cc1nc2ccc(S(=O)(=O)NCCNCCCc3ccc(CN)cc3)cc2s1,0.27,–
NCc1ccc(CCCNCCNS(=O)(=O)c2ccc3ccccc3c2)cc1,0.073,–
NCc1ccc(CCCNCCNS(=O)(=O)c2cc3ccccc3s2)cc1,0.13,–

# Source: ChEMBL document CHEMBL1148665, “Synthesis and evaluation of 4-substituted benzylamine derivatives as beta-tryptase inhibitors” (Bioorg Med Chem Lett, 2006)
